From patent publication US7309484B2, “Compositions and methods for screening antibacterial compounds” (priority 2003, dated 2007)
In brackets after ≈: the same amount, converted by molar mass. Read-outs that look alike come from different tables or passages of the source. Bridge positions count the residues as written; N and C are the ends. Square brackets hold non-standard residues; d marks the D form. Peptide text beside a SMILES is read from it. * marks the point of attachment. Ileψ(thiazoline)Cys = CC[C@H](C)[C@H](N)C1=N[C@H](C(=O)*)CS1; dOrn = NCCC[C@@H](N)C(=O)O

Tests used:
[1] = test system: B. subtilis CU1065 and isogenic deletion mutants; assay: Minimal inhibitory concentration (MIC), microtiter-plate assay; format: cell-based, Bacillus subtilis; details: for MIC: Bacillus subtilis
Method: Since B. subtilis is closely related to the bacitracin-producing strains, it seemed likely that a similar system as described for B. licheniformis could exist in CU1065. The identification of two loci encoding ABC transporters that are under the bacitracin-inducible control of a two-component system supported this hypothesis. […] All strains were grown in microtiter-plates for 4 hours after dilution into LB medium containing the indicated concentrations of bacitracin. The experiment was done in triplicate and a representative result is shown. Strains used were: CU1065 (black squares), ‘bacR’ (HB0927, open diamonds), ‘bacAB’ (HB0928, black diamonds), ‘sigM’ (HB0031, open circles), ‘bcrC’ HB0106 (closed circles), ‘bcrC/bacAB’ (HB0937, black triangle). Compare also with Table 1.
Determination of the minimal inhibitory concentration (MIC): MIC-assays were performed in microtiter plates using a ‘Tecan Spectra Rainbow’ microtiter plate reader. […] Tenfold dilution of these cultures were inoculated in a total volume of 200 μl/well with increasing quantities of bacitracin, ranging from 0.01 to 1000 μg/mL (final concentration). The plates were incubated at 37° C. and the O.D.600 was read after 4 hours, when cultures had reached their final cell density. All experiments were performed in triplicate.

[2] = test system: liaI expression (pMUTIN-derived lacZ fusion, strain BFS2470); assay: microbe, parasite or virus in culture; details: Bacillus subtilis, 0.5 h, read-out: fold induction of liaI expression
Method: Disc-diffusion assays were used to determine the spectrum of stimuli that induce the expression of liaIH. The B. subtilis strains BFS2469 and BFS2470 (Table 2), harboring pMUTIN-insertions in liaH and liaI respectively, were plated on a medium containing the indicator dye X-gal and overlaid with filter disks impregnated with various antibiotics that interfere with cell wall biosynthesis. Specifically, cultures of B. subtilis strain BFS2469 (liaH::pMUTIN) and BFS2470 (liaI::pMUTIN) were grown in LB medium to midlog phase, 2 mL for the un-induced control sample were harvested, and the remaining culture was induced with the three antibiotics for 30 minutes, before the cells of the induced sample were harvested. All samples were taken in duplicate from two independent cultures and the standard deviation is indicated by error bars.
Measurement of induction by β-galactosidase assays: Cells were inoculated from fresh overnight LB-plates and grown in LB-medium at 37° C. with aeration until they reached an O.D.600=0.45. 2 mL of cultures were harvested (un-induced control) and the cell pellets were shock frozen and kept at −70° C. The cultures were induced by addition of antibiotics to a final concentration of: bacitracin (100 μg/mL), tunicamycin (50 μg/mL) or vancomycin (2 μg/mL) and incubated for additional 30 min at 37° C. 2 mL of the cultures were harvested as described above (induced sample). The pellets were re-suspended in 1 mL of working buffer and assayed for β-galactosidase activity as described with normalization to cell density (Miller, 1972, the entire teaching of which is incorporated herein by reference).
For quantitative measurements of β-galactosidase activity, cells were inoculated from fresh overnight LB-plates and grown in LB medium at 37 YC with aeration until they reached an OD600 of 0.45. 2 ml of the culture was harvested (un-induced control) and the cell pellets were frozen and kept at −80 YC. The cultures were induced by addition of the compound to be tested to the final concentration as described in the individual figure legends and incubated for an additional 30 min at 37 YC. 2 ml of the cultures were harvested as described above. The pellets were re-suspended in 1 ml of working buffer (60 mM Na2HPO4, 40 mMNaH2PO4, 10 mM KCl, 1 mM MgSO4, 4 mM DTT) and assayed for β-galactosidase activity as described with normalization to cell density Kobayashi, K., et al., 2001, J Bacteriol 183:7365-7370). […] A sample was taken after 30 min for β-galactosidase assay and the turbidity of the remaining culture was measured for at least 5 hours to monitor the concentration-dependent effects of the antibiotics on cell growth.

[3] = test system: B. subtilis strain BFS2470; assay: Concentration-dependent induction/killing experiments; format: cell-based, Bacillus subtilis
Method: Concentration-dependent induction/killing experiments were performed for bacitracin, nisin, ramoplanin and vancomycin as shown in FIG. 7. In all four cases the induction of liaI occurred in a concentration-dependent manner (FIG. 7a), reaching a maximum at an antibiotic concentration of about 10 μg/ml (1 μg/mL for vancomycin). The time of antibiotic addition is indicated by an arrow. The antibiotic concentrations affecting the induction of PliaI according to the β3-galactosidase assay are indicated by white symbols. The corresponding concentrations are: bacitracin ([…]), nisin (50, 70 and 100 μg/ml), ramoplanin (20, 50 and 100 μg/mL) and vancomycin (5, 10, 50 and 100 μg/mL).
This finding correlates well with the bactericidal effects of these antibiotics as inferred from the dramatic decrease of optical density: there is little effect of bacitracin and vancomycin on cell growth during the first 30-60 min after addition even at high concentrations (FIG. 7b).
The cultures were incubated with aeration at 37° C.

What does the source list for CC[C@H](C)[C@H](N)C1=N[C@H](C(=O)N[C@@H](CC(C)C)C(=O)N[C@H](CCC(=O)O)C(=O)N[C@H](C(=O)N[C@H]2CCCCNC(=O)[C@H](CC(N)=O)NC(=O)[C@@H](CC(=O)O)NC(=O)[C@H](Cc3cnc[nH]3)NC(=O)[C@@H](Cc3ccccc3)NC(=O)[C@H]([C@@H](C)CC)NC(=O)[C@@H](CCCN)NC2=O)[C@@H](C)CC)CS1 [Bacitracin] ({Ileψ(thiazoline)Cys}-L[dE]IK[dOrn]I[dF]H[dD]N; lactam 4-C)?
MIC ([1]; 4 h, read-out: Bacitracin MIC, mutant in bacAB (ytsCD), LB, 4 hours): 10 µg/mL (≈ 7.03 µM); MIC ([1]; 4 h, read-out: Bacitracin MIC, mutant in bcrC, LB, 4 hours): 25 µg/mL (≈ 17.6 µM); MIC ([1]; read-out: bacitracin-resistance (MIC), bcrC/bceAB double mutant (HB0937)): 2.5 µg/mL (≈ 1.76 µM); MIC ([1]; read-out: bacitracin-resistance (MIC), wild type strain (CU1065)): 500 µg/mL (≈ 351 µM); reduction in MIC compared to CU1065 ([1]; bceAB deletion): 50 fold; reduction in MIC compared to CU1065 ([1]; bceR deletion): 50 fold; decrease of bacitracin-resistance compared to the wild type strain ([1]; bcrC/bceAB double mutant): 200 fold; fold induction at 100 µg/mL [2]: > 500; lacZ-expression at higher concentration ([3]; FIG. 7a, in words): remained elevated; effect on cell growth / optical density ([3]; high concentrations, FIG. 7b, in words): little effect; antibiotic concentration at maximum induction of liaI ([3]; β-galactosidase assay after 30 min, 0.01 to 100 μg/ml tested): about 10 μg/ml
